In ChEMBL document CHEMBL1687752, “Impact of antifungal prophylaxis on colonization and azole susceptibility of Candida species” (2009):
Converted amounts (≈) assume the structure as drawn.

Key:
Format in all cases: functional
[1] = system: Candida albicans; test: Antifungal activity against Candida albicans isolated from HSCT recipients with acute or chronic GVHD prior to initiation of posaconazole therapy assessed as maximum MIC by broth microdilution method
[2] = system: Nakaseomyces glabratus; test: Antifungal activity against 85 days cultured Candida glabrata isolated from HSCT recipient with acute or chronic GVHD mouth receiving antifungal therapy for 143 days after 116 days of prophylaxis by broth microdilution method
[3] = system: Nakaseomyces glabratus; test: Antifungal activity against Candida glabrata isolated from neutropenic subjects with AML or MDS prior to initiation of posaconazole therapy by broth microdilution method
[4] = system: Candida albicans; test: Antifungal activity against Candida albicans isolated from neutropenic subjects with AML or MDS receiving fluconazole assessed as maximum MIC by broth microdilution method
[5] = system: Candida tropicalis; test: Antifungal activity against 2 days cultured Candida tropicalis isolated from neutropenic subject with AML or MDS stool receiving antifungal therapy for 45 days after 24 days of prophylaxis by broth microdilution method
[6] = system: Nakaseomyces glabratus; test: Antifungal activity against 16 days cultured Candida glabrata isolated from HSCT recipient with acute or chronic GVHD mouth receiving antifungal therapy for 31 days after 28 days of prophylaxis by broth microdilution method
[7] = system: Nakaseomyces glabratus; test: Antifungal activity against Candida glabrata isolated from HSCT recipients with acute or chronic GVHD prior to initiation of fluconazole therapy assessed as maximum MIC by broth microdilution method
[8] = system: Nakaseomyces glabratus; test: Antifungal activity against Candida glabrata isolated from neutropenic subjects with AML or MDS receiving fluconazole assessed as maximum MIC by broth microdilution method
[9] = system: Candida albicans; test: Antifungal activity against Candida albicans isolated from HSCT recipient 031 with acute or chronic GVHD mouth after 109 days prophylaxis by broth microdilution method
[10] = system: Nakaseomyces glabratus; test: Antifungal activity against 14 days cultured Candida glabrata isolated from HSCT recipient with acute or chronic GVHD mouth after 17 days of prophylaxis by broth microdilution method
[11] = system: Nakaseomyces glabratus; test: Antifungal activity against Candida glabrata isolated from neutropenic subjects with AML or MDS prior to initiation of fluconazole therapy assessed as maximum MIC by broth microdilution method
[12] = system: Nakaseomyces glabratus; test: Antifungal activity against 60 days cultured Candida glabrata isolated from HSCT recipient with acute or chronic GVHD mouth receiving antifungal therapy for 75 days after 33 days of prophylaxis by broth microdilution method
[13] = system: Pichia kudriavzevii; test: Antifungal activity against 6 days cultured Candida krusei isolated from neutropenic subject with AML or MDS stool receiving antifungal therapy for 19 days after 6 days of prophylaxis by broth microdilution method
[14] = system: Candida albicans; test: Antifungal activity against Candida albicans isolated from HSCT recipients with acute or chronic GVHD receiving posaconazole by broth microdilution method
[15] = system: Candida albicans; test: Antifungal activity against 1 day cultured Candida albicans isolated from HSCT recipient with acute or chronic GVHD mouth after 2 days of prophylaxis by broth microdilution method
[16] = system: Nakaseomyces glabratus; test: Antifungal activity against 35 days cultured Candida glabrata isolated from HSCT recipient with acute or chronic GVHD mouth receiving antifungal therapy for 165 days after 138 days of prophylaxis by broth microdilution method
[17] = system: Candida albicans; test: Antifungal activity against Candida albicans isolated from HSCT recipients with acute or chronic GVHD prior to initiation of posaconazole therapy by broth microdilution method
[18] = system: Nakaseomyces glabratus; test: Antifungal activity against 42 days cultured Candida glabrata isolated from neutropenic subject with AML or MDS stool after 48 days of prophylaxis by broth microdilution method
[19] = system: Candida albicans; test: Antifungal activity against Candida albicans isolated from HSCT recipient 042 with acute or chronic GVHD mouth after 112 days prophylaxis by broth microdilution method
[20] = system: Nakaseomyces glabratus; test: Antifungal activity against Candida glabrata isolated from neutropenic subject 1497 with AML or MDS pharynx receiving antifungal drug after 61 days prophylaxis by broth microdilution method
[21] = system: Nakaseomyces glabratus; test: Antifungal activity against Candida glabrata isolated from HSCT recipient 186 with acute or chronic GVHD mouth receiving antifungal drug after 112 days prophylaxis by broth microdilution method
[22] = system: Candida albicans; test: Antifungal activity against Candida albicans isolated from neutropenic subjects with AML or MDS receiving fluconazole by broth microdilution method
[23] = system: Nakaseomyces glabratus; test: Antifungal activity against 1 day cultured Candida glabrata isolated from HSCT recipient with acute or chronic GVHD mouth after 17 days of prophylaxis by broth microdilution method
[24] = system: Candida albicans; test: Antifungal activity against Candida albicans isolated from HSCT recipient 462 with acute or chronic GVHD mouth after 112 days prophylaxis by broth microdilution method
[25] = system: Nakaseomyces glabratus; test: Antifungal activity against Candida glabrata isolated from HSCT recipients with acute or chronic GVHD prior to initiation of posaconazole therapy assessed as maximum MIC by broth microdilution method
[26] = system: Nakaseomyces glabratus; test: Antifungal activity against 111 days cultured Candida glabrata isolated from HSCT recipient with acute or chronic GVHD mouth receiving antifungal therapy for 143 days after 116 days of prophylaxis by broth microdilution method
[27] = system: Pichia kudriavzevii; test: Antifungal activity against 8 days cultured Candida krusei isolated from neutropenic subject with AML or MDS pharynx after 12 days of prophylaxis by broth microdilution method
[28] = system: Nakaseomyces glabratus; test: Antifungal activity against Candida glabrata isolated from HSCT recipient 497 with acute or chronic GVHD mouth after 114 days prophylaxis by broth microdilution method
[29] = system: Candida tropicalis; test: Antifungal activity against 9 days cultured Candida tropicalis isolated from neutropenic subject with AML or MDS stool receiving antifungal therapy for 45 days after 24 days of prophylaxis by broth microdilution method
[30] = system: Nakaseomyces glabratus; test: Antifungal activity against -2 days cultured Candida glabrata isolated from HSCT recipient with acute or chronic GVHD mouth receiving antifungal therapy for 172 days after 114 days of prophylaxis by broth microdilution method
[31] = system: Nakaseomyces glabratus; test: Antifungal activity against Candida glabrata isolated from neutropenic subject 1187 with AML or MDS stool receiving antifungal drug after 22 days prophylaxis by broth microdilution method; conditions: 528 h
[32] = system: Nakaseomyces glabratus; test: Antifungal activity against Candida glabrata isolated from HSCT recipients with acute or chronic GVHD receiving posaconazole by broth microdilution method
[33] = system: Nakaseomyces glabratus; test: Antifungal activity against Candida glabrata isolated from neutropenic subject 1497 with AML or MDS pharynx after 61 days prophylaxis by broth microdilution method
[34] = system: Candida albicans; test: Antifungal activity against Candida albicans isolated from HSCT recipient 262 with acute or chronic GVHD mouth after 115 days prophylaxis by broth microdilution method
[35] = system: Nakaseomyces glabratus; test: Antifungal activity against 59 days cultured Candida glabrata isolated from HSCT recipient with acute or chronic GVHD mouth receiving antifungal therapy for 75 days after 33 days of prophylaxis by broth microdilution method
[36] = system: Nakaseomyces glabratus; test: Antifungal activity against 176 days cultured Candida glabrata isolated from HSCT recipient with acute or chronic GVHD mouth receiving antifungal therapy for 168 days after 113 days of prophylaxis by broth microdilution method
[37] = system: Nakaseomyces glabratus; test: Antifungal activity against 62 days cultured Candida glabrata isolated from HSCT recipient with acute or chronic GVHD mouth receiving antifungal therapy for 143 days after 116 days of prophylaxis by broth microdilution method
[38] = system: Nakaseomyces glabratus; test: Antifungal activity against Candida glabrata isolated from HSCT recipient 807 with acute or chronic GVHD mouth after 114 days prophylaxis by broth microdilution method
[39] = system: Nakaseomyces glabratus; test: Antifungal activity against 31 days cultured Candida glabrata isolated from HSCT recipient with acute or chronic GVHD mouth receiving antifungal therapy for 31 days after 28 days of prophylaxis by broth microdilution method

SMILES: CC[C@@H]([C@H](C)O)n1ncn(-c2ccc(N3CCN(c4ccc(OC[C@@H]5CO[C@@](Cn6cncn6)(c6ccc(F)cc6F)C5)cc4)CC3)cc2)c1=O [POSACONAZOLE]
- MIC [1]: 16 µg/mL
- MIC [2]: 4 µg/mL (≈ 5.71 µM)
- MIC50 [3]: 0.25 µg/mL (≈ 0.357 µM)
- MIC90 [3]: 2 µg/mL (≈ 2.85 µM)
- MIC [4]: 8 µg/mL
- MIC [5]: < 0.015 µg/mL
- MIC [6]: < 0.5 µg/mL
- MIC [7]: 16 µg/mL
- MIC [8]: 2 µg/mL
- MIC [9]: < 0.015 µg/mL
- MIC [10]: 8 µg/mL (≈ 11.4 µM)
- MIC [11]: 8 µg/mL
- MIC [12]: 4 µg/mL (≈ 5.71 µM)
- MIC [13]: 0.125 µg/mL (≈ 0.178 µM)
- MIC50 [14]: 0.03 µg/mL (≈ 0.0428 µM)
- MIC90 [14]: 0.12 µg/mL (≈ 0.171 µM)
- MIC [15]: < 0.03 µg/mL
- MIC [16]: 4 µg/mL (≈ 5.71 µM)
- MIC50 [17]: 0.016 µg/mL (≈ 0.0228 µM)
- MIC90 [17]: 0.06 µg/mL (≈ 0.0856 µM)
- MIC [18]: 1 µg/mL (≈ 1.43 µM)
- MIC [19]: < 0.015 µg/mL
- MIC [20]: 4 µg/mL (≈ 5.71 µM)
- MIC [21]: 2 µg/mL (≈ 2.85 µM)
- MIC50 [22]: 0.015 µg/mL (≈ 0.0214 µM)
- MIC90 [22]: 0.015 µg/mL (≈ 0.0214 µM)
- MIC [23]: > 8 µg/mL
- MIC [24]: < 0.015 µg/mL
- MIC [25]: 8 µg/mL
- MIC [26]: 4 µg/mL (≈ 5.71 µM)
- MIC [27]: 0.125 µg/mL (≈ 0.178 µM)
- MIC [28]: 0.5 µg/mL (≈ 0.713 µM)
- MIC [29]: < 0.015 µg/mL
- MIC [30]: 0.5 µg/mL (≈ 0.713 µM)
- MIC [31]: 4 µg/mL (≈ 5.71 µM)
- MIC50 [32]: 2 µg/mL (≈ 2.85 µM)
- MIC90 [32]: 8 µg/mL (≈ 11.4 µM)
- MIC [33]: 0.03 µg/mL (≈ 0.0428 µM)
- MIC [34]: < 0.015 µg/mL
- MIC [35]: 1 µg/mL (≈ 1.43 µM)
- MIC [36]: 4 µg/mL (≈ 5.71 µM)
- MIC [37]: 4 µg/mL (≈ 5.71 µM)
- MIC [38]: 0.25 µg/mL (≈ 0.357 µM)
- MIC [39]: < 0.5 µg/mL
